Data as given in patent US8134015B2, “Compound inhibiting in vivo phosphorous transport and medicine containing the same” (Kyowa Hakko Kirin Co., Ltd., priority 2003, dated 2012).

Biological target: T1, rat NaPi-2b (Rattus norvegicus, UniProt Q9JJ09)
T1 construct: expressed in transfected cells; host or cells: Xenopus oocytes injected with cRNA
T1 sequence (Q9JJ09 1-695): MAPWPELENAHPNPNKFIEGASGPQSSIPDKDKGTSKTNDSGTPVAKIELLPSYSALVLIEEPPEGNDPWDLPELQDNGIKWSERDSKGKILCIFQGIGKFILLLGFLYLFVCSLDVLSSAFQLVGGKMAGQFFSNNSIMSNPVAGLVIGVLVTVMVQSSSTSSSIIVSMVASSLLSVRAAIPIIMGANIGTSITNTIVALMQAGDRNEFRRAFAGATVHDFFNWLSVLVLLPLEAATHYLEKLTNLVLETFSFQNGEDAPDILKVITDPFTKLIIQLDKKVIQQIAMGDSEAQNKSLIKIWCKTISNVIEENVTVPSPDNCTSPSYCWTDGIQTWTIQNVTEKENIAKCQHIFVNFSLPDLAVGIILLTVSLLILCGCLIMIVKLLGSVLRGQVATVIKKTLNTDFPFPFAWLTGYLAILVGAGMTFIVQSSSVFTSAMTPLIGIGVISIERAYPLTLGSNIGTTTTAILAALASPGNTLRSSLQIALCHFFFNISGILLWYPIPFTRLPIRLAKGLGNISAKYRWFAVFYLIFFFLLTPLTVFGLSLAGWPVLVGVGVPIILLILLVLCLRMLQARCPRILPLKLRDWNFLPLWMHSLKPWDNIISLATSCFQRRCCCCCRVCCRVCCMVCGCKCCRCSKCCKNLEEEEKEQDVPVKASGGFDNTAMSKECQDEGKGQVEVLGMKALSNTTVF
Assay: Sodium-dependent phosphate uptake of Xenopus oocytes which expressed NaPi-2b (32P)
Type: cell-based
Conditions: for IC50: Xenopus oocytes expressing rat NaPi-2b, 32P radioactive phosphorus, read-out: IC50 (phosphate uptake inhibitory activity); for inhibition at 300 µM: phosphate uptake, oocytes expressing rat NaPi-2b, determined from inhibition curve
Procedure: Pharmacological Test Example 1
Experiment of Sodium-Dependent Phosphate Uptake of Xenopus oocytes which Expressed NaPi-2b
Degenerate primers were prepared from sequences of mouse NaPi-2b disclosed in Hilfiker H. et al., Pro Natl Acad Sci USA, 95 (24): 14564-14569, […] and sequences of human and rat NaPi-2a disclosed in Magagnin S. et al., Proc Natl Aca Sci USA, 90 (13): 5979-5983, 1993. RNA was extracted from the rat small intestine using ISOGEN; manufactured by NIPPON GENE CO., LTD (Japan). 400 bp gene fragments were obtained by PCR using, as a template, a cDNA library prepared with a cDNA synthesis kit (manufactured by STRATAGENE (US)). Thereafter, the above rat small intestine cDNA library was screened using the gene fragment as a probe, and the whole gene sequence of rat NaPi-2b was cloned. cRNA was synthesized from the cloned rat NaPi-2b cDNA with a cRNA synthesis kit (manufactured by Ambion (US)). The synthesized cRNA was injected into Xenopus oocytes (obtained from COPACETIC (Japan)) with a liquid microinjector (manufactured by Drummond (US)) and was cultured for 2 days to express rat NaPi-2b. Thereafter, for a group of derivatives, phosphate uptake inhibitory activity were measured using the Xenopus oocytes with ^32P radioactive phosphorus (manufactured by Daiichi Kagaku Inc. (Japan)). […] The inhibitory activity for 300 μM and 100 μM was determined from the same inhibition curve and expressed in percentage inhibition (%) in Table 5.

Row | SMILES | IC50 [µM] | inhibition at 300 µM [%]
1 | Cc1ccc(/C=N/NC(=O)c2cc(Cl)ccc2NC(=O)c2cnc3ccccc3n2)cc1C [Compound 1005, Quinoxaline-2-carboxylic acid [4-chloro-2-(3,4-dimethyl-benzylidene-hydrazinocarbonyl)-phenyl]-amide] | – | 59.1
2 | CCN(CC)CCNCc1ccc(C(=O)Nc2ccc(Br)cc2C(=O)N/N=C/c2ccc(C)c(C)c2)cc1 [Compound 292, N-[4-Bromo-2-(3,4-dimethyl-benzylidene-hydrazinocarbonyl)-phenyl]-4-[(2-diethylamino-ethylamino)-methyl]-benzamide] | 3.5 | –
3 | COc1ccc(C(=O)Nc2ccccc2C(=O)N/N=C/c2ccc(Cl)c(C(F)(F)F)c2)cc1OC [Compound 41, N-[2-(4-Chloro-3-trifluoromethyl-benzylidene-hydrazinocarbonyl)-phenyl]-3,4-dimethoxy-benzamide] | 2.43 | –
4 | O=C(Nc1ccc(Br)cc1C(=O)N/N=C/c1ccc(Cl)c(C(F)(F)F)c1)c1ccc(CSCCO)cc1 [Compound 266, N-[4-Bromo-2-(4-chloro-3-trifluoromethyl-benzylidene-hydrazinocarbonyl)-phenyl]-4-(2-hydroxy-ethylsulfanylmethyl)-benzamide] | < 1 | –
5 | Cc1ccc(/C=N/NC(=O)c2cc(Br)ccc2NC(=O)c2ccc(CN3CCC(O)CC3)cc2)cc1 [Compound 325, N-[4-Bromo-2-(4-methyl-benzylidene-hydrazinocarbonyl)-phenyl]-4-(4-hydroxy-piperidin-1-ylmethyl)-benzamide] | 2.56 | –
6 | Cc1ccc(/C=N/NC(=O)c2c(C)csc2NC(=O)c2cccc(CSCCS(=O)(=O)O)c2)cc1C [Compound 781, 2-{3-[3-(3,4-Dimethyl-benzylidene-hydrazinocarbonyl)-4-methyl-thiophen-2-ylcarbamoyl]-benzylsulfanyl}-ethanesulfonic acid] | – | 51.2
7 | COc1ccc(/C=N/NC(=O)c2scc(C)c2NC(=O)c2cccc(CN3CCC(N4CCCCC4)CC3)c2)cc1 [Compound 531, 3-[1,4′]Bipiperidinyl-1′-ylmethyl-N-[2-(4-methoxy-benzylidene-hydrazinocarbonyl)-4-methyl-thiophen-3-yl]-benzamide] | – | 35.7
8 | O=C(Nc1ccc(Cl)cc1C(=O)N/N=C/c1ccc(F)cc1)c1cccc(CN2CCC(N3CCCCC3)CC2)c1 [Compound 369, 3-[1,4′]Bipiperidinyl-1′-ylmethyl-N-[4-chloro-2-(4-fluoro-benzylidene-hydrazinocarbonyl)-phenyl]-benzamide] | 1.45 | –
9 | Cc1ccc(/C=N/NC(=O)c2cc(N3CCCC3=O)ccc2NC(=O)c2cccc(CN(CC(C)O)CC(C)O)c2)cc1 (centres unmarked) [Compound 948, 3-{[Bis-(2-hydroxy-propyl)-amino]-methyl}-N-[2-(4-methyl-benzylidene-hydrazinocarbonyl)-4-(2-oxo-pyrrolidin-1-yl)-phenyl]-benzamide] | 11.6 | –
10 | O=C(Nc1ccc(Cl)cc1C(=O)N/N=C/c1ccc(Cl)c(C(F)(F)F)c1)c1cccc(CS(=O)(=O)Cc2ccco2)c1 [Compound 688, N-[4-Chloro-2-(4-chloro-3-trifluoromethyl-benzylidene-hydrazinocarbonyl)-phenyl]-3-(furan-2-ylmethanesulfonylmethyl)-benzamide] | < 3 | –
11 | COc1cccc(/C=N/NC(=O)c2cc(Br)ccc2NC(=O)c2ccc(CNCCN3CCOCC3)cc2)c1 [Compound 716, N-[4-Bromo-2-(3-methoxy-benzylidene-hydrazinocarbonyl)-phenyl]-4-[(2-morpholin-4-yl-ethylamino)-methyl]-benzamide] | – | 85.8
12 | O=C(Nc1ccccc1C(=O)N/N=C/c1ccc(Cl)cc1)c1cccc(OC(F)(F)F)c1 [Compound 123] | 3.77 | –
13 | CCN(CC)CCN(C)Cc1cccc(C(=O)Nc2c(C)csc2C(=O)N/N=C/c2ccc(C)cc2)c1 [Compound 710, 3-{[(2-Diethylamino-ethyl)-methyl-amino]-methyl}-N-[4-methyl-2-(4-methyl-benzylidene-hydrazinocarbonyl)-thiophen-3-yl]-benzamide] | – | 83.1
14 | CCN(CC)CCN(CCN(CC)CC)Cc1cccc(C(=O)Nc2sc3c(c2C(=O)N/N=C/c2ccc(C)cc2)CCCC3)c1 [Compound 1056, 3-{[Bis-(2-diethylamino-ethyl)-amino]-methyl}-N-[3-(4-methyl-benzylidene-hydrazinocarbonyl)-4,5,6,7-tetrahydro-benzo[b]thiophen-2-yl]-benzamide] | 1.88 | –
15 | Cc1ccc(/C=N/NC(=O)c2cc(OCCCCF)ccc2NC(=O)c2cccc(CSCCO)c2)cc1 [Compound 1052, N-[4-(4-Fluoro-butoxy)-2-(4-methyl-benzylidene-hydrazinocarbonyl)-phenyl]-3-(2-hydroxy-ethylsulfanylmethyl)-benzamide] | 1.33 | –

Results, then the compound that gave them:

Row | IC50 [µM] | inhibition at 300 µM [%] | SMILES
16 | 5.2 | – | COc1ccc(/C=N/NC(=O)c2cc(N3CCCCC3)ccc2NC(=O)c2cccc(CN3CCC(O)CC3)c2)cc1 [Compound 875, 3-(4-Hydroxy-piperidin-1-ylmethyl)-N-[2-(4-methoxy-benzylidene-hydrazinocarbonyl)-4-piperidin-1-yl-phenyl]-benzamide]
17 | 23.9 | – | COc1ccc(C(=O)Nc2ccccc2C(=O)N/N=C/c2ccc(O)cc2O)cc1OC [Compound 25, N-[2-(2,4-Dihydroxy-benzylidene-hydrazinocarbonyl)-phenyl]-3,4-dimethoxy-benzamide]
18 | < 3 | – | COc1ccc(C(=O)Nc2ccc(N3CCOCC3)cc2C(=O)N/N=C/c2ccc(C)c(C)c2)cc1OC [Compound 939, N-[2-(3,4-Dimethyl-benzylidene-hydrazinocarbonyl)-4-morpholin-4-yl-phenyl]-3,4-dimethoxy-benzamide]
19 | – | 83.7 | O=C(Nc1ccc(Br)cc1C(=O)N/N=C/c1cccc(F)c1)c1ccc(CN2CCC(CCO)CC2)cc1 [Compound 744, N-[4-Bromo-2-(3-fluoro-benzylidene-hydrazinocarbonyl)-phenyl]-4-[4-(2-hydroxy-ethyl)-piperidin-1-ylmethyl]-benzamide]
20 | < 3 | – | COc1ccc(/C=N/NC(=O)c2c(C)csc2NC(=O)c2cccc(CSc3nc[nH]n3)c2)cc1 [Compound 556, N-[3-(4-Methoxy-benzylidene-hydrazinocarbonyl)-4-methyl-thiophen-2-yl]-3-(1H-[1,2,4]triazol-3-ylsulfanylmethyl)-benzamide]
21 | 4.51 | – | COc1ccc(C(=O)Nc2ccccc2C(=O)N/N=C/c2cc(OC)c(OC)c(OC)c2)cc1OC [Compound 12, 3,4-Dimethoxy-N-[2-(3,4,5-trimethoxy-benzylidene-hydrazinocarbonyl)-phenyl]-benzamide]
22 | 2.83 | – | COc1ccc(C(=O)Nc2ccccc2C(=O)N/N=C/c2cccc(C)c2)cc1OC [Compound 20, 3,4-Dimethoxy-N-[2-(3-methyl-benzylidene-hydrazinocarbonyl)-phenyl]-benzamide]
23 | 4.6 | – | Cc1ccc(/C=N/NC(=O)c2cc(Br)ccc2NC(=O)c2ccc(CNCCN3CCOCC3)cc2)cc1C [Compound 281, N-[4-Bromo-2-(3,4-dimethyl-benzylidene-hydrazinocarbonyl)-phenyl]-4-[(2-morpholin-4-yl-ethylamino)-methyl]-benzamide]
24 | 14.6 | – | CCN(CC)CCN(C)Cc1cccc(C(=O)Nc2scc(C)c2C(=O)N/N=C/c2cccc(F)c2)c1 [Compound 566, 3-{[(2-Diethylamino-ethyl)-methyl-amino]-methyl}-N-[3-(3-fluoro-benzylidene-hydrazinocarbonyl)-4-methyl-thiophen-2-yl]-benzamide]
25 | 2.03 | – | Cc1ccc(/C=N/NC(=O)c2ccccc2NC(=O)c2ccccc2F)cc1 [Compound 40, 2-Fluoro-N-[2-(4-methyl-benzylidene-hydrazinocarbonyl)-phenyl]-benzamide]
26 | 3.63 | – | O=C(Nc1ccccc1C(=O)N/N=C/c1ccccc1)c1ccccc1F [Compound 27, N-[2-(Benzylidene-hydrazinocarbonyl)-phenyl]-2-fluoro-benzamide]
